Entries after “also recorded” stand apart in the source; their conditions may differ. Read-outs that look alike come from different tables or passages of the source.

Data set [1] relates to patients with R1882Q mutation. The following applies: human, in vivo. The text has this:
(§1) All patients, or their parents or legal guardian in the case of minors or individuals with intellectual disability, gave written informed consent. The study was approved by the Human Research Ethics Committee of Austin Health, Melbourne.
(§2) Clinical data was collated from the literature for previously reported individuals (N=14), with updated clinical information obtained in one patient. Individuals whose clinical data was not previously published (N=5), had their mutations identified through clinical testing. Detailed phone or clinical interviews with these parents were undertaken by paediatric epileptologists (KBH, MRC), home videos were reviewed and medical records from the treating neurologist obtained.

The test system of data set [2] is patients with R853Q mutation. To be noted: human, in vivo.
Source text: as §1, §2

The test system of data set [3] is patients with R853Q mutation. To be noted: human, in vivo; cited from earlier work.
For data set [4], the system named is patients with R1882Q mutation. The following applies: human, in vivo; cited from earlier work.
The target in another data set is human Nav 1.2 channel (Homo sapiens, UniProt Q99250, R1882Q).
Sequence of human Nav 1.2 channel (Q99250 whole entry R1882Q, looked up): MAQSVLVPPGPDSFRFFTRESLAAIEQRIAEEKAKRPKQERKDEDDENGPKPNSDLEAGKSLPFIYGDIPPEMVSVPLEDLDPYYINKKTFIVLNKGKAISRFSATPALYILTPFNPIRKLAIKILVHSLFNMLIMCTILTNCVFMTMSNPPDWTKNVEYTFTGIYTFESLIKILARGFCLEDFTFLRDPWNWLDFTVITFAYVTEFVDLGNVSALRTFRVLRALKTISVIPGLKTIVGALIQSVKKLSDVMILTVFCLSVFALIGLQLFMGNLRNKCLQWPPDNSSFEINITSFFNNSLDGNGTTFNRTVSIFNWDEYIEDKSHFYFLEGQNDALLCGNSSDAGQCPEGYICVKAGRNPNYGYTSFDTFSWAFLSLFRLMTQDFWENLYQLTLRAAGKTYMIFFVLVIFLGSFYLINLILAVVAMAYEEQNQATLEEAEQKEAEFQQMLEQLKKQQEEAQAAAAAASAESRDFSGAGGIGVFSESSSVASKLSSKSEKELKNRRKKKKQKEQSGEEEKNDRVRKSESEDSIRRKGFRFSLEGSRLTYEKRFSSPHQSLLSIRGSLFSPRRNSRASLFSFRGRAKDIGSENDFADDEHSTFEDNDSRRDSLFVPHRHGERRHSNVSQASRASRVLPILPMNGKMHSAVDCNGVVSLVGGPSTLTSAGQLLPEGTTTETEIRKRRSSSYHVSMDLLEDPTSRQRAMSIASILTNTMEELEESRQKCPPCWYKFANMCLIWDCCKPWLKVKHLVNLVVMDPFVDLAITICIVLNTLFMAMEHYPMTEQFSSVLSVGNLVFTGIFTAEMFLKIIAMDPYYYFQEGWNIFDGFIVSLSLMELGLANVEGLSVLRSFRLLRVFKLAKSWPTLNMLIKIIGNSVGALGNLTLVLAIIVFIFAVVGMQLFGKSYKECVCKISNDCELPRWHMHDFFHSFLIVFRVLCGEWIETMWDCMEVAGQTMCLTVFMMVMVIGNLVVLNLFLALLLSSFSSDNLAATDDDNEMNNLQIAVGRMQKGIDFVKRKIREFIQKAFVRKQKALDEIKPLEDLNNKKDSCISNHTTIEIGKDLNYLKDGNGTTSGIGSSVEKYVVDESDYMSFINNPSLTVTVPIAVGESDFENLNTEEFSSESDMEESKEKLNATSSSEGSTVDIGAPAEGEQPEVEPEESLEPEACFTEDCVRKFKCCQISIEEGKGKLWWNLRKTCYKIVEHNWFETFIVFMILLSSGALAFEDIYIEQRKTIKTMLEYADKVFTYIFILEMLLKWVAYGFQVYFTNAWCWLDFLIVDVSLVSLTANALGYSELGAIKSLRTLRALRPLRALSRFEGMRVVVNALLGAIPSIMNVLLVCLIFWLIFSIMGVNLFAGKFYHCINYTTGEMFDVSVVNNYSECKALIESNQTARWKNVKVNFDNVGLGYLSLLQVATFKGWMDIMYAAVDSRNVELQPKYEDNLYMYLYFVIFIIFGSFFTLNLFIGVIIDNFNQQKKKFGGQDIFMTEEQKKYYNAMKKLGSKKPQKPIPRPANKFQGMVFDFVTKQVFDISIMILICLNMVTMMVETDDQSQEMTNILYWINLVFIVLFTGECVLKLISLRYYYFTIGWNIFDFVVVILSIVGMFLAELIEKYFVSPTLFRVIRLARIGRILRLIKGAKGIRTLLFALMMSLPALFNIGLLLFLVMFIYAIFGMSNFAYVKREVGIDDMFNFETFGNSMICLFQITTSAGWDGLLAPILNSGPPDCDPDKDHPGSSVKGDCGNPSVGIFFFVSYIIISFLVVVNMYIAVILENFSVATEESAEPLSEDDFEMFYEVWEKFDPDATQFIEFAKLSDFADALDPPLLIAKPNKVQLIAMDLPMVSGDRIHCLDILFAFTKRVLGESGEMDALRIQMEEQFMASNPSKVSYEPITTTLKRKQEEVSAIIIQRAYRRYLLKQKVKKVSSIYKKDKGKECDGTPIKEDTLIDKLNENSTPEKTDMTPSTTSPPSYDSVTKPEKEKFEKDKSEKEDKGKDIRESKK

In the case of `C=C(C)[C@@H]1CCC(C)=C[C@H]1c1c(O)cc(CCCCC)cc1O` [CBD, cannabidiol], the “Other AED response” value in data set [1] is listed as “Benefit”.
Turning to L-Dopa/Carbidopa, in data set [2], the “Improvement of movement disorder” value is recorded as “Improvement”.
In the case of `C=CC(N)CCC(=O)O` (stereo not shown) [VGB, vigabatrin], in data set [2], the “Seizure control, summary over patients” value is “beneficial in one and exacerbated seizures in three”. The “Other AED response” value in data set [3] was “Benefit”.
For “adrenocorticotropic hormone (SYSMEHFRWGKPVGKKRRPVKVYPNGAEDESAEAFPLEF; Corticotropin; UniProt P01189 138-176, looked up) [ACTH]”, in data set [2], the “Other AED response” value was “Benefit” and the “Seizure control, summary over patients” value was “beneficial in four patients”. The “Other AED response” value in data set [3] is on record as “Benefit”.
With `NC(=O)N1c2ccccc2C=Cc2ccccc21` [CBZ, carbamazepine], the “Other sodium channel blocker response” value in data set [2] is on record as “benefit”. Moreover, the “Seizure control, summary over patients” value in data set [1] was “Seizures were improved”.
In the case of `CN1C(=O)CC(=O)N(c2ccccc2)c2cc(Cl)ccc21` [CLB, clobazam], in data set [3], the “Other AED response” value is on record as “Benefit”.
As to `NC(=O)N1c2ccccc2CC(=O)c2ccccc21` [OXC, oxcarbazepine], the “Other sodium channel blocker response” value is recorded as “seizure control remained good” in data set [2] and “no effect” in data set [4].
As for `CCCC(CCC)C(=O)O` [VPA, valproic acid], the “Other AED response” value in data set [1] and in data set [3] was “Benefit” throughout.
On to `CC1(C)O[C@@H]2[C@@H](CO[C@@]3(COS(N)(=O)=O)OC(C)(C)O[C@@H]23)O1` [TPM, topiramate], for which, in data set [3], the “Other AED response” value is “Benefit”.
On to `O=C1NC(=O)C(c2ccccc2)(c2ccccc2)N1` [PHT, phenytoin], for which the PHT response entry in data set [2] was “No effect”; in data set [1], “Benefit”; in data set [4], “No effect”; in data set [3], “No effect”. The “Adverse effect with phenytoin loads (movement disorder)” value in data set [1] is recorded as “‘continuous thrashing’”. Moreover, the “Seizure control, summary over patients” value in data set [1] was “some showed marked improvement; also recorded: improved seizure control in two and no definite effect on seizures in three; also recorded: some patients with R1882Q mutations become seizure free; also recorded: not universal”.
`NC1=N[C@H](O)[C@H]2[C@H]3O[C@]4(O)O[C@@H]([C@@H](O)[C@@]2(N1)[C@@H]4O)[C@]3(O)CO` [tetrodotoxin]: the “Sensitivity of persistent INa to tetrodotoxin” value at human Nav 1.2 channel is “sensitive”.
Regarding `CCCCCc1cc(O)c2c(c1)OC(C)(C)[C@@H]1CCC(C)=C[C@@H]21` [THC, tetrahydrocannabinol], the “Other AED response” value in data set [2] is “Benefit”.
Turning to `CC1OC(C)OC(C)O1` (stereo not shown) [paraldehyde], the “Other AED response” value in data set [2] was “Benefit”.
For the compound `CCCCCCC(=O)OCC(COC(=O)CCCCCC)OC(=O)CCCCCC` [triheptanoin], in data set [2], the “Improvement of movement disorder” value was “Improvement” and the “Other AED response” value was “Benefit”. Also, the “Other AED response” value in data set [1] is given as “Benefit”.
As for `Nc1nnc(-c2cccc(Cl)c2Cl)c(N)n1` [LTG, lamotrigine], in data set [4], the “Other sodium channel blocker response” value is reported as “no effect”.

These data come from patent US12259378B2, “Dynamic clamps and methods of use thereof” (priority 2018, dated 2025).
